# “Also recorded” adds a separate entry of the source.
# Experiments:
# human lymphoma lines = experiment: Proliferation of human lymphoma lines (FIG. 5); type: cell-based; details: 1-100 μM, 24 hours, various human lymphoma lines
# Experimental: (§1) Cell Counting. A volume of cells was removed from culture medium and mixed with an equal volume of 0.4% Trypan blue stain. Then, 10 μL were taken out and placed into a hemocytometer for cell counting. Viable cell counts were used as a measure of cell proliferation.
# (§2) All RCC cell lines were maintained in Dulbecco's Modified Eagle Medium (DMEM) supplemented with 10% fetal bovine serum (FBS), 1% L-glutamine, 1% sodium pyruvate, 1% nonessential amino acids, and Antibiotic-Antimycotic. All lymphoma lines were maintained in RPMI 1640 medium supplemented with 10% FBS, 50 μM β-mercaptoethanol, and […]
# mouse-derived T-ALL line = experiment: Response in mouse-derived T-ALL line at high, low or no MYC (FIG. 6); type: cell-based; details: 1-100 μM; MYC levels controlled by doxycycline-off system
# Experimental: as §1, §2
# [1] = tested on: mouse-derived MYC-induced RCC E28 line; experiment: RCC E28 proliferation / cell viability (FIG. 7, 10B, 12B); type: cell-based
# Experimental: as §1, §2
# [2] = tested on: mouse derived MYC-induced HCC EC4 line; experiment: HCC EC4 proliferation / cell viability (FIG. 8, 9, 12A); type: cell-based; details: for cell viability as compared to FSG67: HCC EC4, 1-100 μM dose, two days (48 hours) post treatment
# Experimental: as §1
# fatty acids and PGs = experiment: Lipid profile after TOFA or FSG67 (FIG. 11); parameters: species or system mouse
# Experimental: DESI-MSI was used for generating two-dimensional chemical maps of 16 μm-thick tissue sections in order to assess the lipid profiles of tissue. The tissue samples were snap-frozen in liquid nitrogen and stored at −80° C. before processing. The frozen samples were cut into 16 μm sections at −21° C. using a cryomicrotome and thaw-mounted onto microscope slides. The slides were stored at −80° C. Prior to analysis, the slides were dried under a vacuum in a desiccator for approximately 20 minutes. A laboratory-built DESI-MSI source coupled to an LTQ-Orbitrap-XL mass spectrometer (Thermo Fisher Scientific) was utilized, and DESI-MSI was performed in the negative ion mode at m/z 90-1,000 with a spatial resolution of 200 μm (FIG. S1). The Orbitrap was used as the mass analyzer while set to 60,000 resolving power. Mouse tissue samples were imaged by this method using dimethylformamide and acetonitrile (1:1) as a solvent system at a flow rate of 0.5 μL/min. The N2 pressure was set to 175 psi. In DESI-MSI, charged solvents are sprayed onto the tissue, resulting in molecules, such as metabolites and lipids, to be dissolved and extracted from the tissue surface, then transferred into a mass spectrometer for measurement of the mass-to-charge (m/z) ratios. The software ImgGenerator (freeware, www.msimaging.net/) was used for converting raw files into 2D images. Spatially accurate ion images were assembled using BioMap software (freeware, www.maldi-msi.org/). After DESI-MSI, the same tissue section was subjected to a standard H&E staining for histopathologic evaluation using light microscopy. DESI-MS ion images were compared with optical microscopy images of the same-tissue H&E-stained tissue sections for delineation of tumor foci. Tandem MS analyses were performed using both the Orbitrap and the linear ion trap for mass analysis to confirm lipid identity. The LipidMaps database (www.lipidmaps.org/) was also used to assist in lipid identification.
# MYC-induced tumors = MYC-induced tumors in xenograft and primary mouse models; type: in vivo
# Description: A Tet system was used to conditionally activate MYC, in the liver, kidney, lymphocyte, and lung tissue of transgenic mice. In this system, […] In the absence of tetracycline, transcription of the oncogene is activated. Oncogene expression was activated in mice by removal of doxycycline (a stable analog of tetracycline) in the mice's drinking water. All animal studies were approved by the Stanford University Administrative Panel on Laboratory Animal Care (APLAC).
# [3] = biological target: glycerol 3-phosphate acyltransferase (GPAT); details: inhibitor of GPAT; cited from earlier work
# diet-induced obese mice = details: cited from earlier work
# [4] = tested on: human MYC-induced Burkitt's Lymphoma line P493; experiment: BCL P493 cell viability (FIG. 10A, 12C); type: cell-based; details: BCL P493, 1-100 μM dose, five days post treatment
# Experimental: as §1, §2
compound,measurement,setting,value
"CCCCCCCCCS(=O)(=O)Nc1ccccc1C(=O)O [FSG67, 2-(Nonylsulfonamido) benzoic acid]",cell proliferation,human lymphoma lines,suppresses cell proliferation
same,"therapeutic response, high MYC vs. low or no MYC",mouse-derived T-ALL line,induces therapeutic response in high MYC (no dox) vs. low or no MYC; also recorded: induced a therapeutic response in high MYC (no dox)
same,RCC E28 proliferation,[1]; 1-100 μM,suppresses RCC E28 proliferation
same,HCC EC4 proliferation,[2]; 1-100 μM,suppresses HCC EC4 proliferation
same,"depletion of lipids (fatty acids, PGs)",fatty acids and PGs,depletes only PGs
same,levels of fatty acids upstream of GPAT (oleate),fatty acids and PGs,not perturbing levels of fatty acids that are upstream of GPAT
same,MYC-induced tumorigenesis,MYC-induced tumors,MYC-induced tumorigenesis was blocked
same,metabolic changes,MYC-induced tumors,metabolic changes were suppressed
same,tumor regression,MYC-induced tumors,tumors regressed
same,IC50,[3],24 µM
same,body weight and adiposity,diet-induced obese mice,decrease body weight and adiposity
same,energy utilization as fatty acid oxidation,diet-induced obese mice,enhance energy utilization as fatty acid oxidation
same,food intake,diet-induced obese mice,reduce food intake
same,hepatic steatosis,diet-induced obese mice,reverse hepatic steatosis
same,insulin sensitivity,diet-induced obese mice,enhance insulin sensitivity
[2H]c1c([2H])c([2H])c(C(=O)O)c(NS(=O)(=O)CCCCCCCCC)c1[2H] [GFZ1.1],cell viability as compared to FSG67,[2],significant difference in cell viability
[2H]C([2H])([2H])C([2H])([2H])C([2H])([2H])C([2H])([2H])C([2H])([2H])C([2H])([2H])C([2H])([2H])C([2H])([2H])C([2H])([2H])S(=O)(=O)Nc1ccccc1C(=O)OC [GFZ1.2],cell viability as compared to FSG67,[2],significant difference in cell viability
CCCCCCCCCS(=O)(=O)Nc1ccccc1C(=O)OC [GFZ1.5],cell viability as compared to FSG67,"[1]; RCC E28, 1-100 μM dose, two days (48 hours) post treatment",significant difference in cell viability
same,cell viability as compared to FSG67,[2],significant difference in cell viability
same,cell viability as compared to FSG67,[4],significant difference in cell viability
CCCCCCCCCCCCCCOc1ccc(C(=O)O)o1 [TOFA],"depletion of lipids (fatty acids, PGs)",fatty acids and PGs,depletes all fatty acids
